From patent publication US5218115A, “Cholecystokinin antagonists” (Merck & Co., Inc., priority 1992, dated 1993)
pIC50: −log10 of the molar value. “Also recorded” adds a separate entry of the source. Where two headings read alike, the source gives them in different places. Square brackets hold non-standard residues; d marks the D form. Peptide text beside a SMILES is read from it. * marks the point of attachment. sY = N[C@@H](Cc1ccc(OS(=O)(=O)O)cc1)C(=O)O; Cbz = O=C(OCc1ccccc1)*; Boc = CC(C)(C)OC(=O)*

How the values were obtained:
CCK receptor (brain) = biological target: T1, CCK receptor (brain) (Cavia porcellus, UniProt H0VZC5); experiment: CCK Receptor Binding (Brain), inhibition of 125I-CCK-8 binding; parameters: species or system Male Hartley guinea pigs
T1 construct: the cortex was removed and homogenized in 25 mL ice-cold 0.32M sucrose; from tissue; host or cells: guinea pig brain cortex P2 membranes (male Hartley)
T1 sequence (H0VZC5 1-426): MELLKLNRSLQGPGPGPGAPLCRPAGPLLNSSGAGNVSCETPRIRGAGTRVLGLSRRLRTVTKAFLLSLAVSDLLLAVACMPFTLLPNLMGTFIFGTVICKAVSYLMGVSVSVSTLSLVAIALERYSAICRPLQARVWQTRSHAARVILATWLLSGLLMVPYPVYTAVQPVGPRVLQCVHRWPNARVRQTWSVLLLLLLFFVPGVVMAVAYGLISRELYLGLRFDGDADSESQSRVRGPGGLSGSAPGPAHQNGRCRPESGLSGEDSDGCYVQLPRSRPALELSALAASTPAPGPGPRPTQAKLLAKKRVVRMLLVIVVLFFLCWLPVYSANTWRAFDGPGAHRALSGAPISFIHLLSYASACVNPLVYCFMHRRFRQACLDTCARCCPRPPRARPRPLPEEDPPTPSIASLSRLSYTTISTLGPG
Protocol: CCK-8 sulphated was radiolabelled and the binding was performed according to the description for the pancreas method with minor modifications.
Male Hartley guinea pigs (300-500 g) were sacrificed by decapitation and the cortex was removed and homogenized in 25 mL ice-cold 0.32M sucrose. The homogenates were centrifuged at 1000 g for 10 minutes and the resulting supernatant was recentrifuged at 20,000 g for 20 minutes. […] All assays were run in duplicate. The reaction mixtures were incubated at 25° C. for 2 hours and then the reaction was terminated on Whatman GF/C filters by rapid filtration (Brandell 24 well cell Harvester) with 3×5 ml washes of cold 100 mM NaCl. The radioactivity on the filters was then counted with a LKB gamma counter.
(§1) Drug displacement studies were performed with at least 10 concentrations of compounds of formula 1 and the IC50 values were determined by regression analysis.

brain CCK (CCK-B) = conditions: in words; cited from earlier work
CCK receptor = conditions: in words; cited from earlier work
CCK receptor (pancreas) = biological target: T2, CCK receptor (pancreas) (Rattus norvegicus, UniProt P30551); experiment: CCK Receptor Binding (Pancreas), inhibition of 125I-CCK-8 binding; parameters: species or system Male Sprague-Dawley rats; conditions: 125I-CCK-8 50 pM, 25° C., 2 hours
T2 construct: The whole pancreas was dissected free of fat tissue and was homogenized; from tissue; host or cells: rat pancreas membranes (male Sprague-Dawley)
T2 sequence (P30551 1-444): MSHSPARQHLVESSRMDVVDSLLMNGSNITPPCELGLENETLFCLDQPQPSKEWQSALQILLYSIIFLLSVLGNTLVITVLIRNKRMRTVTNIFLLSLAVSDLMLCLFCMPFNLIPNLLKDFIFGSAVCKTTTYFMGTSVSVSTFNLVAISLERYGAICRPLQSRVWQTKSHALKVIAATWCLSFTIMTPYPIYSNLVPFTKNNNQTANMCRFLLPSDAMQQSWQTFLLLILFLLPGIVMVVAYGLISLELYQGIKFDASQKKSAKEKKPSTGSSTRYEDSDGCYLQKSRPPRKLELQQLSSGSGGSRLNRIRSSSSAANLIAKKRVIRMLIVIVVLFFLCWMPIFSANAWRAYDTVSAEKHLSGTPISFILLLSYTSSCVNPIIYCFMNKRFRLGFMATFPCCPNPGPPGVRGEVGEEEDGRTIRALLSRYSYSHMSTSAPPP
Protocol: CCK-8 sulphated was radiolabelled with ^125 I-Bolton Hunter reagent (2000 Ci/mmole). Receptor binding was performed according to Chang and Lotti (Proc. Natl. Acad. Sci. 83, 4923-4926, 1986) with minor modifications.
Male Sprague-Dawley rats (150-200 g) were sacrificed by decapitation. The whole pancreas was dissected free of fat tissue and was homogenized in 25 volumes of ice-cold 10 mM Hepes buffer with 0.1% soya bean trypsin inhibitor (pH 7.4 at 25° C.) with a Kinematica Polytron. The homogenates were centrifuged at 47,800 g for 10 min. Pellets were resuspended in 10 volumes of binding assay buffer (20 mM Hepes, 1 mM EGTA, 5 mM MgCl2, 150 mM NaCl, bacitracin 0.25 mg/ml, soya bean trypsin inhibitor 0.1 mg/ml, and bovine serum albumin 2 mg/ml, pH 6.5 at 25° C.) using a teflon homogenizer, 15 strokes at 500 rpm. The homogenate was further diluted in binding assay buffer to give a final concentration of 0.5 mg original wet weight/1 ml buffer. […] All assays were run in duplicate. […] The radioactivity on the filters was counted with a LKB gamma counter.
as §1

[1] = biological target: T3, Gastrin receptor (gastric glands) (Cavia porcellus, UniProt H0VZC5); experiment: Gastrin Receptor Binding in Guinea Pig Gastric Glands, 125I-gastrin; parameters: species or system guinea pigs, male Hartley; conditions: 125I-gastrin 0.1 nM, 25° C., 30 minutes, read-out: CCK RECEPTOR BINDING RESULTS IC50, 125I-Gastrin Gastric Glands
T3 construct: from tissue; host or cells: guinea pig gastric mucosal glands (male Hartley)
T3 sequence (H0VZC5 1-426): T1 sequence (H0VZC5 1-426)
Protocol: Gastrin antagonist activity of compounds of Formula I is determined using the following assay.
A. Gastrin Receptor Binding in Guinea Pig Gastric Glands
Guinea pig gastric mucosal glands were prepared by the procedure of Chang et al., Science 230, 177-179 (1985) with slight modification. Gastric mucosa from guinea pigs (300-500 g body weight, male Hartley) were isolated by scraping with a glass slide after washing stomachs in ice-cold, aerated buffer consisting of the following: 130 mM NaCl, 12 mM NaHCO3, 3 mM NaH2 PO4, 3 mM Na2 HPO4, 3 mM K2 HPO4, 2 mM MgSO4, 1 mM CaCl2, 5 mM glucose and 4 mM L-glutamine, 50 mM HEPES, 0.25 mg/ml bacitracin, 0.10 mg/ml soya bean trypsin inhibitor, 0.1 mg/ml bovine serum albumin, at pH 6.5, and then incubated in a 37° C. shaking water bath for 40 minutes in buffer containing 1 mg/ml collagenase and bubbled with 95% O2 and 5% CO2. The tissues were passed twice through a 5 ml syringe to liberate the gastric glands, and then filtered through Nitex #202 gauge nylon mesh. The filtered glands were centrifuged at 272 g for 5 minutes and washed twice by resuspension in 25 ml buffer and centrifugation.
The washed guinea pig gastric glands prepared as above were resuspended in 25 ml of standard buffer. […] The radioactivity on the filters was measured using a LKB gamma counter.

gastrin = conditions: in words, in vitro; cited from earlier work
[2] = guinea pig cortex, 125I-CCK-8 50 pM, 25° C., 2 hours, read-out: CCK RECEPTOR BINDING RESULTS IC50, 125I-CCK Brain

| SMILES | pIC50 (CCK receptor (brain); [2]) | CCK antagonist activity (CCK receptor) | other results |
| --- | --- | --- | --- |
| Cc1cccc(NC(=O)NC2N=C(c3ccccc3)c3ccccc3N(Cc3n[nH]c(C)n3)C2=O)c1 (racemic) [Example 4, N-{1,3-Dihydro-1-[5-(2-methyl-1,3,4-triazolo)-methylene]-2-oxo-5-phenyl-1H-1,4-benzodiazepin-3-yl}-N'-{[3-methylphenyl]-urea}] | 8.00 |  |  |
| Cc1cccc(NC(=O)N[C@@H]2N=C(c3ccccc3)c3ccccc3N(C)C2=O)c1 [(R)-N-(2,3-dihydro-1-methyl-2-oxo-5-phenyl-1H-1,4-benzodiazepin-3-yl)-N^1-(3-methylphenyl) urea] |  |  | CCK-B receptor antagonism / selectivity (brain CCK (CCK-B)): potent and selective antagonist of CCK-B receptors |
| CSCC[C@H](NC(=O)OC(C)(C)C)C(=O)N[C@@H](CC(=O)O)C(=O)N[C@@H](Cc1ccccc1)C(N)=O [Boc-Met-Asp-Phe-NH2] (Boc-Met-Asp-Phe-NH2) |  | can function as CCK antagonists |  |
| CSCC[C@H](NC(=O)[C@H](Cc1ccc(OS(=O)(=O)O)cc1)NC(=O)OCc1ccccc1)C(=O)NCC(=O)N[C@@H](Cc1c[nH]c2ccccc12)C(=O)N[C@@H](CCSC)C(=O)N[C@@H](CC(=O)O)C(N)=O [Cbz-Tyr(SO3 H)-Met-Gly-Trp-Met-Asp-NH2] (Cbz-[sY]MGWMD-NH2) |  | can function as CCK antagonists; also recorded: partial agonist |  |
| Cc1cccc(NC(=O)NC2N=C(c3ccccc3)c3ccccc3N(Cc3c[nH]cn3)C2=O)c1 (stereo not shown) [Example 1, N-{1,3-Dihydro-1-[1H-4-imidazolyl]methyl-2-oxo-5-phenyl-1H-1,4-benzodiazepin-3-yl}-N'-{[3-methylphenyl]-urea}] | 8.10 |  | pIC50 (CCK receptor (pancreas)): 7.96; pIC50 [1]: 8.44 |
| O=C(Nc1cccc(-c2nn[nH]n2)c1)N[C@@H]1N=C(c2ccccc2)c2ccccc2N(CC(=O)N2CCCC2)C1=O [Example 2, N-{3-(R)-1,3-Dihydro-1-(pyrrolidinylcarbonyl)methyl-2-oxo-5-phenyl-1H-1,4-benzodiazepin-3(R)-yl}-N'-{[3-(1H-tetrazol-5-yl)phenyl]urea}] | 9.92 |  |  |
| Cc1cccc(NC(=O)NC2N=C(c3ccccc3)c3ccccc3N(Cc3ncc[nH]3)C2=O)c1 (stereo not shown) [Example 3, N-{1,3-Dihydro-1-[1H-2-imidazolyl]methyl-2-oxo-5-phenyl-1H-1,4-benzodiazepin-3-yl}-N'-{[3-methylphenyl]-urea}] |  |  | pIC50 (CCK receptor (pancreas)): 6.59; pIC50 (CCK receptor (brain)): 7.23 |
| CSCC[C@H](N)C(=O)N[C@@H](CC(=O)O)C(=O)N[C@@H](Cc1ccccc1)C(N)=O [Met-Asp-Phe-NH2] (H-Met-Asp-Phe-NH2) |  | can function as CCK antagonists |  |
| CCCC(=O)Nc1nc2c(ncn2[C@@H]2O[C@@H]3COP(=O)(O)O[C@H]3[C@H]2OC(=O)CCC)c(=O)[nH]1 [dibutyryl cyclic GMP] |  | most potent |  |
| CCCN(CCC)C(=O)C(CCC(=O)O)NC(=O)c1ccccc1 (stereo not shown) [proglumide] |  |  | gastrin antagonist activity (gastrin): very weak in vitro antagonists |
